{"source": "paper PMC8635029", "about": "(Frontiers in Pharmacology, 2021)", "key": {"Adrenergic α1D": {"target": "T1, Adrenergic α1D (Homo sapiens, UniProt P25100)", "T1 construct": "Eurofins Discovery (contract panel) PP223", "assay": "In vitro SafetyScreen panel", "assay_type": "binding", "protocol": "(§1) In vitro off-target pharmacological activities of HSK21542 were evaluated on 86 targets using a SafetyScreen panel (Item PP223, target selectivity panel) and the corresponding methods could be found at https://www.eurofinsdiscoveryservices.com/."}, "Adrenergic β1": {"target": "T2, Adrenergic β1 (Homo sapiens, UniProt P08588)", "T2 construct": "Eurofins Discovery (contract panel) PP223", "assay": "In vitro SafetyScreen panel", "assay_type": "binding", "protocol": "as §1"}, "Chemokine CXCR2 (IL-8RB)": {"target": "T3, Chemokine CXCR2 (IL-8RB) (Homo sapiens, UniProt P25025)", "T3 construct": "Eurofins Discovery (contract panel) PP223", "T3 sequence (P25025 whole entry)": "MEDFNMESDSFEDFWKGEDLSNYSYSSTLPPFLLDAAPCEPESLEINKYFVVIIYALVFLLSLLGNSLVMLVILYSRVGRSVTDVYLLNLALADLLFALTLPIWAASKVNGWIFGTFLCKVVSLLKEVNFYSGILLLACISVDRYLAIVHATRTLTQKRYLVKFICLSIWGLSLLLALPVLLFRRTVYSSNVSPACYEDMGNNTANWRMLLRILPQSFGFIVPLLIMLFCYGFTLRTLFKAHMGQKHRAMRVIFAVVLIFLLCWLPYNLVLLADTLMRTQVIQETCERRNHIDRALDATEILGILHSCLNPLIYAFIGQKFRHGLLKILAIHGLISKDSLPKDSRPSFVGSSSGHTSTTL", "assay": "In vitro SafetyScreen panel", "assay_type": "binding", "protocol": "as §1"}, "[1]": {"target": "T4, Cholecystokinin CCK1 (CCKA) (Homo sapiens, UniProt P32238)", "T4 construct": "Eurofins Discovery (contract panel) PP223", "assay": "In vitro SafetyScreen panel", "assay_type": "binding", "protocol": "as §1"}, "[2]": {"target": "T5, Glutamate, Metabotropic, mGlu5 (Homo sapiens, UniProt P41594)", "T5 construct": "Eurofins Discovery (contract panel) Item PP223", "assay": "In vitro SafetyScreen panel", "assay_type": "binding", "protocol": "as §1"}, "Opiate δ1 (OP1, DOP)": {"target": "T6, Opiate δ1 (OP1, DOP) (Homo sapiens, UniProt P41143)", "T6 construct": "Eurofins Discovery (outsourced panel) PP223", "assay": "In vitro SafetyScreen panel", "assay_type": "binding", "protocol": "as §1"}, "[3]": {"target": "T7, Serotonin (5-Hydroxytryptamine) 5-HT1A (Homo sapiens, UniProt P08908)", "T7 construct": "Eurofins Discovery (outsourced panel) PP223", "assay": "In vitro SafetyScreen panel", "assay_type": "binding", "protocol": "as §1"}, "[4]": {"target": "T8, Serotonin (5-Hydroxytryptamine) 5-HT3 (Homo sapiens, UniProt P46098)", "T8 construct": "Eurofins Discovery (contract panel) PP223", "assay": "In vitro SafetyScreen panel", "assay_type": "binding", "protocol": "as §1"}, "[5]": {"target": "T9, Transporter, Serotonin (5-Hydroxytryptamine) (SERT) (Homo sapiens, UniProt P31645)", "T9 construct": "Eurofins Discovery (contract panel) PP223", "T9 sequence (P31645 whole entry)": "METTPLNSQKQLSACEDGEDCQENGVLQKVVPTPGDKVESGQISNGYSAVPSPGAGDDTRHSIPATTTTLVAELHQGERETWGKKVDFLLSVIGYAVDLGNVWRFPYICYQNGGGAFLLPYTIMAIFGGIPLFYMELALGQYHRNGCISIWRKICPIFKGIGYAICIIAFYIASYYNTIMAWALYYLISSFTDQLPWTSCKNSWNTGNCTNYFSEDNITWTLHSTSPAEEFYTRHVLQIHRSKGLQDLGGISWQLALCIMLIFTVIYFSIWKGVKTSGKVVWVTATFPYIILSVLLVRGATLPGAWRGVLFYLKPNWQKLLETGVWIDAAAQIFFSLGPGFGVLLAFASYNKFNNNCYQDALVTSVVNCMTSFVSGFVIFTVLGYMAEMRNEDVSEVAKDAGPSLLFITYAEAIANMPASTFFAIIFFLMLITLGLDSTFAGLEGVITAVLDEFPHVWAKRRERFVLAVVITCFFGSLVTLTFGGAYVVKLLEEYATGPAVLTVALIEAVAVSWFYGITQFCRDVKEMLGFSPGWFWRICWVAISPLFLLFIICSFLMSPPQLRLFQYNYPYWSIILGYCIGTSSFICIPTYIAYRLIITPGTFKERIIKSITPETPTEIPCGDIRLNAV", "assay": "In vitro SafetyScreen panel", "assay_type": "binding", "protocol": "as §1"}, "[6]": {"target": "T10, Cholinesterase, Acetyl, ACES (Homo sapiens, UniProt P22303)", "T10 construct": "Eurofins Discovery (contract panel) PP223", "T10 sequence (P22303 32-614)": "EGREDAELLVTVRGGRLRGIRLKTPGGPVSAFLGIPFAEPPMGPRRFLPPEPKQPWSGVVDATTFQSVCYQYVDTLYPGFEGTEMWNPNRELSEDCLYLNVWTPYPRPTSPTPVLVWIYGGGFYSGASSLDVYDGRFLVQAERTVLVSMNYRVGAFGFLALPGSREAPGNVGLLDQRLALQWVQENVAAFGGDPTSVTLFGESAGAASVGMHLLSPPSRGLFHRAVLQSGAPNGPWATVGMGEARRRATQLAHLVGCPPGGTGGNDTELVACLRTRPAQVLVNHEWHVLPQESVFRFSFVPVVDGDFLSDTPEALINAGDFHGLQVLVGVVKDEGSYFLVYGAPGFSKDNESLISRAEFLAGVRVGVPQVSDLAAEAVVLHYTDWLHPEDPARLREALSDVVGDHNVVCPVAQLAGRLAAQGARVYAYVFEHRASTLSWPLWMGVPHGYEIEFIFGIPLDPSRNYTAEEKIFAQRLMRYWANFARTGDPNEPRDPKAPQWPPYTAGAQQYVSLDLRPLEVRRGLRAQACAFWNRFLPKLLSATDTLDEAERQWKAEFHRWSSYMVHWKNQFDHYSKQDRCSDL", "assay": "In vitro SafetyScreen panel", "assay_type": "biochemical", "protocol": "as §1"}, "Cyclooxygenase COX-1": {"target": "T11, Cyclooxygenase COX-1 (Homo sapiens, UniProt P23219)", "T11 construct": "Eurofins Discovery (contract panel) PP223", "T11 sequence (P23219 24-599)": "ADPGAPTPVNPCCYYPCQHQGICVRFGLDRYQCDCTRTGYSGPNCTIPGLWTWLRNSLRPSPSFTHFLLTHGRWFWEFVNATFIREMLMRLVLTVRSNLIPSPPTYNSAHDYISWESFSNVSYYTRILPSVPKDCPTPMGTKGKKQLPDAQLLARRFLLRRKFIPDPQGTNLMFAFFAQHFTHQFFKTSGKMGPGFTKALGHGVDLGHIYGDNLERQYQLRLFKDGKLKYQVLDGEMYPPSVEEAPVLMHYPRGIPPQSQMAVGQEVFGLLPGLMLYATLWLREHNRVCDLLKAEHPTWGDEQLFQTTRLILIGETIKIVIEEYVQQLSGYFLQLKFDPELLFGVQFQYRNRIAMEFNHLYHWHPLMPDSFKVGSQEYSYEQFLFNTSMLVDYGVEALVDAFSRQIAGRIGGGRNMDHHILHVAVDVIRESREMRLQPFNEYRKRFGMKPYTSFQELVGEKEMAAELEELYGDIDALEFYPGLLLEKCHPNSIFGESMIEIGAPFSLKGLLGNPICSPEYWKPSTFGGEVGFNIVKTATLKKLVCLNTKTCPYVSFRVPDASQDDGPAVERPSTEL", "assay": "In vitro SafetyScreen panel", "assay_type": "biochemical", "protocol": "as §1"}, "Cyclooxygenase COX-2": {"target": "T12, Cyclooxygenase COX-2 (Homo sapiens, UniProt P35354)", "T12 construct": "Eurofins Discovery (contract panel) Item PP223", "T12 sequence (P35354 18-604)": "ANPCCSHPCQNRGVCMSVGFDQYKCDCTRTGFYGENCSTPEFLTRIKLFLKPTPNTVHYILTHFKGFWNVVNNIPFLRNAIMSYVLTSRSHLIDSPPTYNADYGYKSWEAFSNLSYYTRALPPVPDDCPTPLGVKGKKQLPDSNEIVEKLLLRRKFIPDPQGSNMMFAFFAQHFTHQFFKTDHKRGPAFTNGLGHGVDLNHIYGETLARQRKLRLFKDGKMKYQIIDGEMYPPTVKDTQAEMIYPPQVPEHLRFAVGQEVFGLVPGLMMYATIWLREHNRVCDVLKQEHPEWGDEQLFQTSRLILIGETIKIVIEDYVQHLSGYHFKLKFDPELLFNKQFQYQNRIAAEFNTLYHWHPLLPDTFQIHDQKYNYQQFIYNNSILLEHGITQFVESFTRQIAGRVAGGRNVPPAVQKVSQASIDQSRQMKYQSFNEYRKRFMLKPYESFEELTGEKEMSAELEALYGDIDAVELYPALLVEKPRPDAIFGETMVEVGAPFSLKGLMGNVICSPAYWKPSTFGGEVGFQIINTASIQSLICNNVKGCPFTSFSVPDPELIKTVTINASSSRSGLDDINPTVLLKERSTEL", "assay": "In vitro SafetyScreen panel", "assay_type": "biochemical", "protocol": "as §1"}, "Monoamine Oxidase MAO-A": {"target": "T13, Monoamine Oxidase MAO-A (Homo sapiens, UniProt P21397)", "T13 construct": "Eurofins Discovery (contract panel) Item PP223", "T13 sequence (P21397 whole entry)": "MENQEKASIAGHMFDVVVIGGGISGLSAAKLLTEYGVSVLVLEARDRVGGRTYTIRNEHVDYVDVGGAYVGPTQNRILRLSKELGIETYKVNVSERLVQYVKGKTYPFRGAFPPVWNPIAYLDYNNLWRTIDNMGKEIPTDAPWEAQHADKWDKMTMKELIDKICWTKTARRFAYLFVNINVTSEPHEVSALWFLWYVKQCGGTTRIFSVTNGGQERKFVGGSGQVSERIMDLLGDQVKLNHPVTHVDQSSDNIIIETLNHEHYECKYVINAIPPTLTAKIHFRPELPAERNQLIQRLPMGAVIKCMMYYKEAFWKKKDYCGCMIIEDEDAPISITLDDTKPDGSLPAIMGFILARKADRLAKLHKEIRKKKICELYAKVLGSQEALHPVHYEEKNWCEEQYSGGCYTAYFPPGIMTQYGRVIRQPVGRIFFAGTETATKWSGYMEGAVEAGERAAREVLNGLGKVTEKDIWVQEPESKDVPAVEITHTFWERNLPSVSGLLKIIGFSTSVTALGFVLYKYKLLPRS", "assay": "In vitro SafetyScreen panel", "assay_type": "biochemical", "protocol": "as §1"}, "Monoamine Oxidase MAO-B": {"target": "T14, Monoamine Oxidase MAO-B (Homo sapiens, UniProt P27338)", "T14 construct": "Eurofins Discovery (outsourced panel) PP223", "assay": "In vitro SafetyScreen panel", "assay_type": "biochemical", "protocol": "as §1"}, "[7]": {"target": "T15, Peptidase, CTSG (Cathepsin G) (Homo sapiens, UniProt P08311)", "T15 construct": "Eurofins Discovery (outsourced panel) PP223", "assay": "In vitro SafetyScreen panel", "assay_type": "biochemical", "protocol": "as §1"}, "[8]": {"target": "T16, Protein Tyrosine Kinase, Insulin Receptor (Homo sapiens, UniProt P06213)", "T16 construct": "Eurofins Discovery (outsourced panel) PP223", "T16 sequence (P06213 28-1382)": "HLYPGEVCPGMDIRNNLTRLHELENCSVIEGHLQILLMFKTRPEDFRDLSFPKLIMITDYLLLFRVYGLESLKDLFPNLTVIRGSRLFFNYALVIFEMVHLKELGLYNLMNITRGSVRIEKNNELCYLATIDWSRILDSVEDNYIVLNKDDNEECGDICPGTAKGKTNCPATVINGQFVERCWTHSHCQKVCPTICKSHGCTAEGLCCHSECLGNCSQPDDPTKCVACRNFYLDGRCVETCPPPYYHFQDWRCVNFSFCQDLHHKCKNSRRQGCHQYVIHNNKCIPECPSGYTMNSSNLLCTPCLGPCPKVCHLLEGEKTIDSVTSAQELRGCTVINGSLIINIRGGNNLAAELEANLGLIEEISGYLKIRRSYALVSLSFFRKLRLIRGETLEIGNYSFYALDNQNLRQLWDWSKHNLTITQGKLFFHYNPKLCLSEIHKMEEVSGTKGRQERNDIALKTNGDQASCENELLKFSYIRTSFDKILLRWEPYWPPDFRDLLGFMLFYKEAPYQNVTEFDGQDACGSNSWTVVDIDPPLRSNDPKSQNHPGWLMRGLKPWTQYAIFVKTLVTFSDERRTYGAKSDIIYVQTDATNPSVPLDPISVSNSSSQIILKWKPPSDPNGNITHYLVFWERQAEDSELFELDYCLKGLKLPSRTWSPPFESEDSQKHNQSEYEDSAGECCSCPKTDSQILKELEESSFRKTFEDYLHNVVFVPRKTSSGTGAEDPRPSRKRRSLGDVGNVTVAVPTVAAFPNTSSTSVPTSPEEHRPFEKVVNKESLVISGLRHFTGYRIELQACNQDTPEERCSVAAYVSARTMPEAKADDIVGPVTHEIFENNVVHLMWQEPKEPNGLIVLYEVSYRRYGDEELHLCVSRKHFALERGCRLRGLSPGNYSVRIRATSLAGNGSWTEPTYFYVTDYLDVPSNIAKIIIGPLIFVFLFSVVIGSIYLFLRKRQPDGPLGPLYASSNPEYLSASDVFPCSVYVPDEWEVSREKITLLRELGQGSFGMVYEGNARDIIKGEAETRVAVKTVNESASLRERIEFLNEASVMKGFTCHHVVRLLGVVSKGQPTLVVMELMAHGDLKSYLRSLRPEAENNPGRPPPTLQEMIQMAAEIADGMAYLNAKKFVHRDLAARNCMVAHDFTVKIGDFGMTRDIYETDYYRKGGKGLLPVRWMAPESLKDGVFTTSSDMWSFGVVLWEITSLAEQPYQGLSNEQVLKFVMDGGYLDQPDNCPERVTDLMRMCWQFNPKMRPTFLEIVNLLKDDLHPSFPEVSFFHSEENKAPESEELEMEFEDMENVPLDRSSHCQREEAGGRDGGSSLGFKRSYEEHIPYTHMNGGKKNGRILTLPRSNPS", "assay": "In vitro SafetyScreen panel", "assay_type": "biochemical", "protocol": "as §1"}, "[9]": {"target": "T17, Protein Tyrosine Kinase, LCK (Homo sapiens, UniProt P06239)", "T17 construct": "Eurofins Discovery (outsourced panel) PP223", "assay": "In vitro SafetyScreen panel", "assay_type": "biochemical", "protocol": "as §1"}, "[10]": {"target": "T18, Peptidase, Angiotensin Converting Enzyme (Oryctolagus cuniculus, UniProt P12822)", "T18 construct": "Eurofins Discovery (outsourced panel) PP223", "assay": "In vitro SafetyScreen panel", "assay_type": "biochemical, rabbit", "protocol": "as §1"}, "human κ opioid receptor": {"target": "T19, human κ opioid receptor (Homo sapiens, UniProt P41145)", "T19 construct": "expressed in transfected cells; cell membranes", "T19 sequence (P41145 whole entry)": "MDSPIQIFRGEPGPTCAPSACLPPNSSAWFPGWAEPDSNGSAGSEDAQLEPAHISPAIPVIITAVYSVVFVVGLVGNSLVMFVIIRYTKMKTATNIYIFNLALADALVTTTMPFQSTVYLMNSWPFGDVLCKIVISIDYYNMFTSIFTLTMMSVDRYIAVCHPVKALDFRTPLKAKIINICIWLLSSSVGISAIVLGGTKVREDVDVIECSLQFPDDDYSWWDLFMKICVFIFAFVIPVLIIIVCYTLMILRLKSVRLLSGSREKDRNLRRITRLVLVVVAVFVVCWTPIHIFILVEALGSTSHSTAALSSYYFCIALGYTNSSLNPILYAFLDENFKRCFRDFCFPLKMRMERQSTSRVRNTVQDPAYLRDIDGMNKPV", "assay": "[3H]diprenorphine binding assay"}, "[11]": {"assay": "In vivo brain/plasma distribution in rats", "conditions": "rat, iv, SD rats, single 0.3 mg/kg i.v., read-out: brain/plasma concentration ratio", "protocol": "SD rats (half male and half female) were intravenously given a single dose of 0.3 mg/kg HSK21542. The samples were collected at 0.083, 0.5, 1.5 and 4 h after dosing. The rats were anesthetized with isoflurane and then sacrificed by taking blood from the abdominal aorta. The whole brains were rapidly removed from the crania. The plasma (∼100 μL) was separated from the blood by centrifugating at 2000 ×g for 10 min at 4°C. The brains were rinsed with ice-cold normal saline, blotted dry, weighted and placed into a plastic tube. For 1.0 g of brain sample, 4 ml of acetonitrile-ultrapure water solution (1:4, v/v) was added to the tube. The brain samples were then homogenized for 120 s at 50 Hz and ultrasound was performed for 5 min. The plasma and the brain samples were analyzed using a LC-MS/MS assay as detailed in supplementary materials.\nThe plasma or brain homogenate was ice thawed. […] The resulting solution was then analyzed to determine the concentrations of HSK21542 on a LC-MS/MS system, which consisted of a DGU-20A5R degasser, a LC-30AD pump, a SIL-30AC autosampler, a CTO-20A column oven (Shimadzu, Japan) and an AB Sciex Triple Quad 5500 mass spectrometer (Sciex, Canada). […] Quantification was conducted in positive ion mode. The MRM transition of m/z 704.4→295.2 was used to quantify HSK21542."}, "ICR mice": {"test_system": "ICR mice", "assay": "Measurement of respiration (whole body plethysmography)", "assay_type": "in vivo", "conditions": "2 mg/kg", "protocol": "A whole body plethysmography (DSI, US) was used to measure respiration in freely moving ICR mice (half male and half female) as described previously ([Manglik et al., 2016]; [Hill et al., 2018a]; [Hill et al., 2018b]) with some modifications. The respiratory frequency was recorded and then averaged for over 5-min period. The baseline values were recorded for 10 min before dosing. The mice were then removed from the chambers and given drugs, and respiration was then measured for 45 min."}, "mice": {"test_system": "mice", "assay": "Locomotor activity test (sedation)", "conditions": "0.4 mg/kg, 15 min post-dosing"}}, "data": [{"smiles": "CC(=O)N1CC2(CCN(C(=O)[C@@H](CCCCN)NC(=O)[C@@H](CC(C)C)NC(=O)[C@@H](Cc3ccccc3)NC(=O)[C@H](N)Cc3ccccc3)CC2)C1", "note": "[HSK21542, 7-(D-phenylalanyl-D-phenylalanyl-D-leucyl-D-lysyl)-2-acetyl-2,7-diazaspiro (3.5)nonane]", "values": [{"measurement": "inhibition at 10 µM", "setting": "Adrenergic α1D", "result": -1, "unit": "%"}, {"measurement": "inhibition at 10 µM", "setting": "Adrenergic β1", "result": 11, "unit": "%"}, {"measurement": "inhibition at 10 µM", "setting": "Chemokine CXCR2 (IL-8RB)", "result": 4, "unit": "%"}, {"measurement": "inhibition at 10 µM", "setting": "[1]", "result": 5, "unit": "%"}, {"measurement": "inhibition at 10 µM", "setting": "[2]", "result": 19, "unit": "%"}, {"measurement": "inhibition at 10 µM", "setting": "Opiate δ1 (OP1, DOP)", "result": 5, "unit": "%"}, {"measurement": "inhibition at 10 µM", "setting": "[3]", "result": 1, "unit": "%"}, {"measurement": "inhibition at 10 µM", "setting": "[4]", "result": 14, "unit": "%"}, {"measurement": "inhibition at 10 µM", "setting": "[5]", "result": 7, "unit": "%"}, {"measurement": "inhibition at 10 µM", "setting": "[6]", "result": 6, "unit": "%"}, {"measurement": "inhibition at 10 µM", "setting": "Cyclooxygenase COX-1", "result": 9, "unit": "%"}, {"measurement": "inhibition at 10 µM", "setting": "Cyclooxygenase COX-2", "result": 12, "unit": "%"}, {"measurement": "inhibition at 10 µM", "setting": "Monoamine Oxidase MAO-A", "result": 0, "unit": "%"}, {"measurement": "inhibition at 10 µM", "setting": "Monoamine Oxidase MAO-B", "result": 11, "unit": "%"}, {"measurement": "inhibition at 10 µM", "setting": "[7]", "result": -1, "unit": "%"}, {"measurement": "inhibition at 10 µM", "setting": "[8]", "result": 17, "unit": "%"}, {"measurement": "inhibition at 10 µM", "setting": "[9]", "result": -8, "unit": "%"}, {"measurement": "inhibition at 10 µM", "setting": "[10]", "result": 5, "unit": "%"}, {"measurement": "IC50", "setting": "human κ opioid receptor; HEK-293 membranes expressing human KOR, 0.6 nM [3H]diprenorphine, 25°C, 60 min, read-out: IC50 for inhibition of [3H]diprenorphine binding to KOR", "result": 540, "unit": "pM"}, {"measurement": "Kd", "setting": "human κ opioid receptor; competitive binding kinetic model, [3H]diprenorphine, read-out: Kd for binding to KOR (binding kinetics)", "result": 68, "unit": "pM"}, {"measurement": "Kp", "setting": "[11]", "result": 0.001}, {"measurement": "effect on respiratory rate", "setting": "ICR mice", "result": "no obvious effects"}, {"measurement": "effect on locomotor activity / total distance traveled", "setting": "mice", "result": "did not significantly affect"}]}]}
